# Reference: paper PMC7070320, “Unsymmetrically Substituted Dibenzo[b,f][1,5]-diazocine-6,12(5H,11H)dione—A Convenient Scaffold for Bioactive Molecule Design” (Molecules, 2020)
# Where two headings read alike, the source gives them in different places.
# Tests used:
# [1] = tested on: two normal (HEK293, EUFA30) and two cancerous (HeLa, U87) cell lines; experiment: Cytotoxicity assay (Alamar Blue), statements over all four cell lines; type: cell-based, human; settings: concentrations tested: 1–200 µM
# Experimental: (§1) Following cell lines: HeLa, U87, HEK293, EUFA30 were cultured in DMEM medium (Life Technology, Carlsbad, CA, USA) with 10% fetal bovine serum (Thermo Fisher Scientific, Waltham, MA, USA) and 0.1% antibiotics (penicillin, streptomycin, Life Technology, Carlsbad, CA, USA). Cells were grown in atmosphere of 5 and 95% CO2 and air, respectively, at 37 °C.
# (§2) Exponentially growing cells at the density of 2 × 10^3 cells/well were seeded onto a 96-well plate, cultured for 18 h, and treated with newly synthesized compounds at concentrations 1–200 µM, or with DMSO as a control, for 24 or 48 h. Alamar Blue (Thermo Fisher Scientific, Waltham, MA, USA) was added accordingly to manufacturer protocol. After 4 h, light emission at 590 nm was measured with excitation at 560 nm using a scanning multiwell spectrophotometer (DTX 880, Beckman Coulter, Brea, CA, USA). The experiments were repeated at least three times with three replicates for each inhibitor concentration. After background subtraction, inhibition rates, IC50, were calculated as the component concentration inhibiting cell growth by 50%. All the calculations were performed using Origin 9.0 software.
# HeLa [2] = experiment: Cytotoxicity assay (Alamar Blue), HeLa cells; type: cell-based; settings: Homo sapiens, read-out: IC50 based on the survival of cells
# Experimental: as §1, §2
# U87 [3] = experiment: Flow cytometry apoptosis detection (Annexin V-FITC / propidium iodide), U87; type: cell-based, human; settings: U87, 200 µM; for cells in necrosis: control 8.6%; for cells in necrotic phase: 48 h, control 17%; for cells in late apoptosis: control 1.6%
# Experimental: as §1
# (§3) The apoptosis detection kit (Annexin V-FITC BD Biosciences, Franklin Lakes, NJ, USA) was used to detect apoptosis by flow cytometry. Cells were seeded in 6-well plates at concentration of 5 × 10^5 cells/well, cultured for 18 h, and tested compound was applied for indicated time. Afterwards, cells were washed with PBS, resuspended in binding buffer at concentration of 2 × 10^6 cells/mL. The anti-Annexin V FITC-conjugated antibody and propidium iodide were added to 100 µl aliquots. Then, mixtures were incubated for 15 min at room temperature, supplemented with binding buffer to 500 µl and processed by BD FACSCalibur (BD Biosciences, Franklin Lakes, NJ, USA). Data were analyzed in Flowing Software version 2.5.1 (Flowing Software, http://www.uskonaskel.fi/flowingsoftware).
# HEK293 [4] = experiment: Cytotoxicity assay (Alamar Blue), HEK293 cells; type: cell-based, human; settings: read-out: IC50 based on the survival of cells
# Experimental: as §1, §2
# U87 [5] = experiment: Cytotoxicity assay (Alamar Blue), U87 cells; type: cell-based, human; settings: read-out: IC50 based on the survival of cells
# Experimental: as §1, §2
# EUFA30 = experiment: Cytotoxicity assay (Alamar Blue), EUFA30 cells; type: cell-based; settings: Homo sapiens, read-out: IC50 based on the survival of cells
# Experimental: as §1, §2
# HeLa [6] = experiment: Flow cytometry apoptosis detection (Annexin V-FITC / propidium iodide), HeLa; type: cell-based, human; settings: 200 µM
# Experimental: as §1, §3
# HEK293 [7] = experiment: Flow cytometry apoptosis detection (Annexin V-FITC / propidium iodide), HEK293; type: cell-based, human; settings: HEK293, 200 µM; for cells in necrosis: control cells 20%; for cells in early apoptosis: control cells 1.3%
# Experimental: as §1, §3
# [8] = Homo sapiens, HEK293, 24 h, HEK293, 24 h of treatment
# [9] = Homo sapiens, HEK293, 48 h, HEK293, 48 h of treatment
# [10] = Homo sapiens, U-87 MG, 24 h, U87, 24 h of treatment
# [11] = Homo sapiens, U-87 MG, 48 h, U87, 48 h of treatment
smiles,measurement,setting,value
"O=C1Nc2ccc(Br)cc2C(=O)Nc2ccccc21 [Compound 10b, 2-Bromodibenzo[b,f][1,5]diazocine-6,12(5H,11H)-dione]",cytotoxic effect (in words),[1],showed a cytotoxic effect while maintaining the selectivity of action
same,melting point,,283 to 284 °C
same,IC50,HeLa [2]; 24 h of treatment,97.3 ± 13.7 µM
"CCOC(=O)CN1C(=O)c2ccccc2N(C)C(=O)c2ccccc21 [Compound 10n, ethyl 2-(11-methyl-6,12-dioxo-11,12-dihydrodibenzo[b,f][1,5]diazocin-5(6H)-yl)acetate]",melting point,,125 to 126 °C
"O=C1Nc2nccnc2C(=O)Nc2ccc(Cl)cc21 [Compound 10m, 8-Chloropyrazino[3,2-c][1,5]benzodiazocine-6,12(5H,11H)-dione]",melting point,,346 to 347 °C
"COc1cc2c(cc1OC)C(=S)Nc1ccc(Br)cc1C(=S)N2 [Compound 10p, 8-bromo-2,3-dimethoxydibenzo[b,f][1,5]diazocine-6,12(5H,11H)-dithione]",cells in necrosis,U87 [3]; 24 h,14%
same,cells in necrotic phase,U87 [3],46.6%
same,IC50,"HEK293 [4]; HEK293, 24 h of treatment",202 ± 7.9 µM
same,IC50,HEK293 [4]; [8],> 200 µM
same,IC50,HEK293 [4]; [9],145 ± 8.5 µM
same,cytotoxic effect (in words),[1],showed a cytotoxic effect while maintaining the selectivity of action
same,melting point,,186 to 187 °C (dec.)
same,IC50,U87 [5]; [10],170 µM
same,IC50,"U87 [5]; U87, 24 h of treatment",172 ± 10 µM
same,IC50,HeLa [2]; 24 h of treatment,115 ± 4.5 µM
same,IC50,HeLa [2]; 48 h of treatment,204 ± 6.5 µM
same,IC50,"EUFA30; Eufa30, 24 h of treatment",> 200 µM
same,IC50,"EUFA30; Eufa30, 48 h of treatment",158 ± 9.6 µM
same,percentage of necrotic cells,"HeLa [6]; 24 h, non-treated control 21.1%",34.5%
same,percentage of necrotic cells,"HeLa [6]; 48 h, control cells 22.1%",53.4%
"CN1C(=O)c2ccccc2NC(=O)c2ccccc21 [Compound 10d, 5-Methyldibenzo[b,f][1,5]diazocine-6,12(5H,11H)-dione]",melting point,,258 to 259 °C
"CN1C(=O)c2cc([N+](=O)[O-])ccc2NC(=O)c2ccccc21 [Compound 10f, 11-Methyl-2-nitrodibenzo[b,f][1,5]diazocine-6,12(5H,11H)-dione]",cells in late apoptosis,"HEK293 [7]; 24 h, control cells 0.4%",0.5%
same,cells in necrosis,HEK293 [7]; 24 h,39%
same,cells in late apoptosis,"HEK293 [7]; 48 h, control cells 0.5%",3%
same,cells in early apoptosis,HEK293 [7]; 48 h,6.6%
same,cytotoxic effect (in words),[1],showed a cytotoxic effect while maintaining the selectivity of action
same,melting point,,225 to 226 °C
same,IC50,HeLa [2]; 24 h of treatment,206 ± 12.8 µM
"CN1C(=O)c2cc(Br)ccc2N(Cc2cccc3ccccc23)C(=O)c2ccccc21 [Compound 10k, 2-Bromo-11-methyl-5-(naphthalen-1-ylmethyl)dibenzo[b,f][1,5]diazocine-6,12(5H,11H)-dione]",changes in the apoptosis/necrosis phases in relation to control,U87 [3]; 24 and 48 h,did not observe any changes in the apoptosis/necrosis phases in relation to control
same,changes in the apoptosis/necrosis phases in relation to control,HEK293 [7]; 24 and 48 h,did not observe any changes in the apoptosis/necrosis phases in relation to control
same,IC50,HEK293 [4]; [8],119 ± 7.1 µM
same,IC50,HEK293 [4]; [9],138 ± 12 µM
same,melting point,,255 to 256 °C
same,IC50,U87 [5]; [10],75.4 ± 8.7 µM
same,IC50,U87 [5]; [11],197 ± 9.4 µM
same,IC50,HeLa [2]; 24 h of treatment,75.3 ± 1.6 µM
same,IC50,HeLa [2]; 48 h of treatment,124 ± 5.4 µM
same,IC50,"EUFA30; Eufa30, 24 h of treatment",87.6 ± 8.1 µM
same,IC50,"EUFA30; Eufa30, 48 h of treatment",74.4 ± 6.7 µM
same,changes in the apoptosis/necrosis phases in relation to control,HeLa [6]; 24 and 48 h,did not observe any changes in the apoptosis/necrosis phases in relation to control
"O=C1Nc2ccccc2C(=O)N(Cc2ccc(Br)cc2)c2ccccc21 [Compound 10j, 5-(4-Bromobenzyl)dibenzo[b,f][1,5]diazocine-6,12(5H,11H)-dione]",cells in late apoptosis,U87 [3]; 24 h,5.2%
same,cells in necrosis,U87 [3]; 24 h,17.8%
same,cells in necrotic phase,U87 [3],28.1%
same,cells in late apoptosis,"HEK293 [7]; 24 h, control cells 0.4%",10%
same,cells in necrosis,HEK293 [7]; 24 h,22%
same,cells in late apoptosis,"HEK293 [7]; 48 h, control cells 0.5%",4.4%
same,cells in early apoptosis,HEK293 [7]; 48 h,4%
same,IC50,HEK293 [4]; [9],192 ± 12.2 µM
same,cytotoxic effect (in words),[1],showed a cytotoxic effect while maintaining the selectivity of action
same,melting point,,222 to 223 °C
same,IC50,HeLa [2]; 24 h of treatment,138 ± 14.1 µM
same,IC50,HeLa [2]; 48 h of treatment,203 ± 4 µM
"CN1C(=O)c2cc(Br)ccc2NC(=O)c2ccccc21 [Compound 10e, 2-Bromo-11-methyldibenzo[b,f][1,5]diazocine-6,12(5H,11H)-dione]",melting point,,247 to 248 °C
same,IC50,HeLa [2]; 24 h of treatment,> 200 µM
"CN1C(=O)c2cc3ccccc3cc2NC(=O)c2cc(Cl)ccc21 [Compound 10h, 2-Chloro-5-methylbenzo[b]naphtho[2,3-f][1,5]diazocine-6,14(5H,13H)-dione]",cells in early apoptosis,"U87 [3]; 24 h, control 1.2%",4.1%
same,cells in late apoptosis,U87 [3]; 24 h,6.9%
same,cells in necrotic phase,U87 [3],36.2%
same,cells in late apoptosis,"HEK293 [7]; 24 h, control cells 0.4%",3%
same,cells in necrosis,HEK293 [7]; 24 h,32%
same,cells in late apoptosis,"HEK293 [7]; 48 h, control cells 0.5%",3.2%
same,cells in early apoptosis,HEK293 [7]; 48 h,3.8%
same,IC50,HEK293 [4]; [8],> 200 µM
same,cytotoxic effect (in words),[1],showed a cytotoxic effect while maintaining the selectivity of action
same,melting point,,270 to 271 °C
same,IC50,U87 [5]; [10],149 ± 9 µM
same,IC50,U87 [5]; [11],182 ± 5.6 µM
same,IC50,HeLa [2]; 24 h of treatment,107 ± 10 µM
same,IC50,HeLa [2]; 48 h of treatment,108 ± 8.6 µM
same,IC50,"EUFA30; Eufa30, 24 h of treatment",170 ± 21.1 µM
same,IC50,"EUFA30; Eufa30, 48 h of treatment",200 ± 13.9 µM
"CC(=O)N1C(=O)c2ccccc2N(C)C(=O)c2ccccc21 [Compound 10o, 5-acetyl-11-methyldibenzo[b,f][1,5]diazocine-6,12(5H,11H)-dione]",melting point,,193 to 194 °C
"O=C1Nc2ccccc2C(=O)N(Cc2ccccc2)c2ccccc21 [Compound 10i, 5-Benzyldibenzo[b,f][1,5]diazocine-6,12(5H,11H)-dione]",melting point,,212 to 213 °C
"O=C1Nc2ccc(Cl)cc2C(=O)Nc2ccccc21 [Compound 10a, 2-Chlorodibenzo[b,f][1,5]diazocine-6,12(5H,11H)-dione]",cytotoxic effect (in words),[1],no cytotoxic effect in the concentration range tested
same,melting point,,275 to 276 °C
"COc1cc2c(cc1OC)C(=O)N(C)c1ccccc1C(=O)N2 [Compound 10g, 2,3-Dimethoxy-11-methyldibenzo[b,f][1,5]diazocine-6,12(5H,11H)-dione]",melting point,,271 to 272 °C
"COc1cc2c(cc1OC)C(=O)Nc1ccc(Br)cc1C(=O)N2 [Compound 10c, 8-Bromo-2,3-dimethoxydibenzo[b,f][1,5]diazocine-6,12(5H,11H)-dione]",cytotoxic effect (in words),[1],no cytotoxic effect in the concentration range tested
same,melting point,,195 to 196 °C
